Results reported in ChEMBL document CHEMBL1139396, “Novel N9-arenethenyl purines as potent dual Src/Abl tyrosine kinase inhibitors” (Bioorg Med Chem Lett, 2008).

How the values were obtained:
[1] = Cytotoxicity against mouse BA/F3 cells transfected with wild-type Bcr-Abl; conditions: BaF3
K562 = assay: Cytotoxicity against human K562 cells transfected with wild-type Bcr-Abl
[2] = target: Tyrosine-protein kinase ABL1 (Homo sapiens, UniProt P00519)
[3] = target: Proto-oncogene tyrosine-protein kinase Src (Homo sapiens, UniProt P12931); assay: Inhibition of human Src kinase by TR-FRET assay
[4] = Volume of distribution at steady state in rat at 5 mg/kg, iv; assay type: ADME, organism-based; parameters: dose 5 mg/kg, route intravenous; conditions: in vivo, read-out: Vdss
[5] = Cmax in rat at 5 mg/kg, iv; assay type: ADME, organism-based; parameters: dose 5 mg/kg, route intravenous; conditions: in vivo
[6] = Half life in rat at 5 mg/kg, iv; assay type: ADME, organism-based; parameters: dose 5 mg/kg, route intravenous; conditions: in vivo
[7] = Half life in rat at 5 mg/kg, po; assay type: ADME, organism-based; parameters: dose 5 mg/kg, route oral; conditions: in vivo
[8] = Oral bioavailability in rat at 5 mg/kg; assay type: ADME, organism-based; conditions: in vivo
[9] = Cmax in rat at 5 mg/kg, po; assay type: ADME, organism-based; parameters: dose 5 mg/kg, route oral; conditions: in vivo
[10] = target: Macrophage colony-stimulating factor 1 receptor (Homo sapiens, UniProt P07333)
[11] = target: Platelet-derived growth factor receptor alpha (Homo sapiens, UniProt P16234); assay: Inhibition of PDGFRalpha
[12] = target: Cyclin-dependent kinase 2 (Homo sapiens, UniProt P24941); assay: Inhibition of CDK2/CyclinA
[13] = target: RAF proto-oncogene serine/threonine-protein kinase (Homo sapiens, UniProt P04049); assay: Inhibition of c-Raf
[14] = target: Mast/stem cell growth factor receptor Kit (Homo sapiens, UniProt P10721); assay: Inhibition of Kit
Insulin receptor = Insulin receptor (Homo sapiens, UniProt P06213); assay: Inhibition of InsR
[15] = Inhibition of Abl […] mutant
[16] = Inhibition of Aurora kinase
[17] = target: Vascular endothelial growth factor receptor 1 (Homo sapiens, UniProt P17948); assay: Inhibition of Flt1
[18] = target: Vascular endothelial growth factor receptor 3 (Homo sapiens, UniProt P35916); assay: Inhibition of Flt4
Ephrin type-B receptor 1 = target: T1, Ephrin type-B receptor 1 (Homo sapiens, UniProt P54762); assay: Inhibition of EphB1
T1 sequence (P54762 whole entry): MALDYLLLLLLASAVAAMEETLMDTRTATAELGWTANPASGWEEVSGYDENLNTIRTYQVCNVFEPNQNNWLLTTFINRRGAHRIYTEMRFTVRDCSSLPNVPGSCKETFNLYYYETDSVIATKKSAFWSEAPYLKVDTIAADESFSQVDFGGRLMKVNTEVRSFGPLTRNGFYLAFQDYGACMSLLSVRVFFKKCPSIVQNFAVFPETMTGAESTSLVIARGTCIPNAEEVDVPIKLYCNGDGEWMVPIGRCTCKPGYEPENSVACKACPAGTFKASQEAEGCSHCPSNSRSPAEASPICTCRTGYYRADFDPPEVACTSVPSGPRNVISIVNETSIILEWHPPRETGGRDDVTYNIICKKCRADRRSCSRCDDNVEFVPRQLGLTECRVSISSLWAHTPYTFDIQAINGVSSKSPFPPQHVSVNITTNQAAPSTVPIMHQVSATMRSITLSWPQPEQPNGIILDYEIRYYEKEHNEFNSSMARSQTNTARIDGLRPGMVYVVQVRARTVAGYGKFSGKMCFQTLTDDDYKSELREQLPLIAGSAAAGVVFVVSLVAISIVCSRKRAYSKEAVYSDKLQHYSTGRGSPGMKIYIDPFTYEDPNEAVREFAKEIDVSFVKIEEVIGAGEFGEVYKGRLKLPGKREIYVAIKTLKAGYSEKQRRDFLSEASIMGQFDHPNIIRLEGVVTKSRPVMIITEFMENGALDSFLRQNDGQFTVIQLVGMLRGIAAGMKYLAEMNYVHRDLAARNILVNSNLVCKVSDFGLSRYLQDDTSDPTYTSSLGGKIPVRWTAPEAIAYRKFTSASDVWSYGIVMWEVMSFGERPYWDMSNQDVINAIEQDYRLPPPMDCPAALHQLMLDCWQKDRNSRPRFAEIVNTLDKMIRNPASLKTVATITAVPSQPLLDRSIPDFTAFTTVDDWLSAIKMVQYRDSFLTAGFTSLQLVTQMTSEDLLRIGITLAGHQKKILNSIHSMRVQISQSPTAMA

Ephrin type-B receptor 4 = target: T2, Ephrin type-B receptor 4 (Homo sapiens, UniProt P54760); assay: Inhibition of EphB4
T2 sequence (P54760 whole entry): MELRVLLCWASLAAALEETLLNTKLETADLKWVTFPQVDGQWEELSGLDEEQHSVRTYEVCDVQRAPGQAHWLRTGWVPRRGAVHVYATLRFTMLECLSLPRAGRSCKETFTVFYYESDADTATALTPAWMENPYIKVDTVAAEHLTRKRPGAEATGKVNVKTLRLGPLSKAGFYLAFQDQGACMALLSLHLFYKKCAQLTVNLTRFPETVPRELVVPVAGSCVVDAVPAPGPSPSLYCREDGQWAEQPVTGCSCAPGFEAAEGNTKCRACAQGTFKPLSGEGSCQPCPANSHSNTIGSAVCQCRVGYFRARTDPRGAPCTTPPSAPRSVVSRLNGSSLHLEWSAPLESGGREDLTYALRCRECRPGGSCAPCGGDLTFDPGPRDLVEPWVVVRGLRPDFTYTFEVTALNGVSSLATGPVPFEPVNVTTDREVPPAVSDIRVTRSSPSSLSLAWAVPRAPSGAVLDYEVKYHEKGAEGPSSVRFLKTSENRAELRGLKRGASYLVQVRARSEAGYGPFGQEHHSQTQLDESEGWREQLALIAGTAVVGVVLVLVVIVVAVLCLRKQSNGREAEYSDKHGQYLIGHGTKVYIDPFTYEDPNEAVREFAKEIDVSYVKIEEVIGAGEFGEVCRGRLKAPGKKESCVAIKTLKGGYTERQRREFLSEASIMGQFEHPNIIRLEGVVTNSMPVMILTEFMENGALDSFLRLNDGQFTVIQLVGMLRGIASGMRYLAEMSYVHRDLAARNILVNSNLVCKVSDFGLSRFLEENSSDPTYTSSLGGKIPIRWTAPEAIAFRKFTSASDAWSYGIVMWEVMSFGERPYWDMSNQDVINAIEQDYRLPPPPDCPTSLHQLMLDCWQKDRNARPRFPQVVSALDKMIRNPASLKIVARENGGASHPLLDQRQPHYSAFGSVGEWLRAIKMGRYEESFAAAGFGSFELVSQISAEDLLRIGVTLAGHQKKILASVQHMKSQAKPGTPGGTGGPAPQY

[19] = target: Ephrin type-A receptor 7 (Homo sapiens) (UniProt Q15375); assay: Inhibition of EphA7

Proto-oncogene tyrosine-protein kinase Src, sequence (P12931 2-536 limits assumed): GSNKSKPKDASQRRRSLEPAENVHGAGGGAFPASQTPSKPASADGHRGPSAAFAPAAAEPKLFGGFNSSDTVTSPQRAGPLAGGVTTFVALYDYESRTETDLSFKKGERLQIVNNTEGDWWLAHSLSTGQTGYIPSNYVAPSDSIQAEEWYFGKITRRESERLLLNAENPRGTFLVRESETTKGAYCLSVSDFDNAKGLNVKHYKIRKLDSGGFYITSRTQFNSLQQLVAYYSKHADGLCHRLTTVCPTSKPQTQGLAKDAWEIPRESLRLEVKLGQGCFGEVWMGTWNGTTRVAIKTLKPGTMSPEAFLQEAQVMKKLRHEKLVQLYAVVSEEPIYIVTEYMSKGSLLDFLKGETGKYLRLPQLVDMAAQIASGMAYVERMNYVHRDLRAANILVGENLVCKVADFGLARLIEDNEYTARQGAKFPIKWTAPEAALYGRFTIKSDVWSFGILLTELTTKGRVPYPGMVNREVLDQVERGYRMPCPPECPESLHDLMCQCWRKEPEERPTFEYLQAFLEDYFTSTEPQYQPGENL
Tyrosine-protein kinase ABL1, sequence (P00519 whole entry): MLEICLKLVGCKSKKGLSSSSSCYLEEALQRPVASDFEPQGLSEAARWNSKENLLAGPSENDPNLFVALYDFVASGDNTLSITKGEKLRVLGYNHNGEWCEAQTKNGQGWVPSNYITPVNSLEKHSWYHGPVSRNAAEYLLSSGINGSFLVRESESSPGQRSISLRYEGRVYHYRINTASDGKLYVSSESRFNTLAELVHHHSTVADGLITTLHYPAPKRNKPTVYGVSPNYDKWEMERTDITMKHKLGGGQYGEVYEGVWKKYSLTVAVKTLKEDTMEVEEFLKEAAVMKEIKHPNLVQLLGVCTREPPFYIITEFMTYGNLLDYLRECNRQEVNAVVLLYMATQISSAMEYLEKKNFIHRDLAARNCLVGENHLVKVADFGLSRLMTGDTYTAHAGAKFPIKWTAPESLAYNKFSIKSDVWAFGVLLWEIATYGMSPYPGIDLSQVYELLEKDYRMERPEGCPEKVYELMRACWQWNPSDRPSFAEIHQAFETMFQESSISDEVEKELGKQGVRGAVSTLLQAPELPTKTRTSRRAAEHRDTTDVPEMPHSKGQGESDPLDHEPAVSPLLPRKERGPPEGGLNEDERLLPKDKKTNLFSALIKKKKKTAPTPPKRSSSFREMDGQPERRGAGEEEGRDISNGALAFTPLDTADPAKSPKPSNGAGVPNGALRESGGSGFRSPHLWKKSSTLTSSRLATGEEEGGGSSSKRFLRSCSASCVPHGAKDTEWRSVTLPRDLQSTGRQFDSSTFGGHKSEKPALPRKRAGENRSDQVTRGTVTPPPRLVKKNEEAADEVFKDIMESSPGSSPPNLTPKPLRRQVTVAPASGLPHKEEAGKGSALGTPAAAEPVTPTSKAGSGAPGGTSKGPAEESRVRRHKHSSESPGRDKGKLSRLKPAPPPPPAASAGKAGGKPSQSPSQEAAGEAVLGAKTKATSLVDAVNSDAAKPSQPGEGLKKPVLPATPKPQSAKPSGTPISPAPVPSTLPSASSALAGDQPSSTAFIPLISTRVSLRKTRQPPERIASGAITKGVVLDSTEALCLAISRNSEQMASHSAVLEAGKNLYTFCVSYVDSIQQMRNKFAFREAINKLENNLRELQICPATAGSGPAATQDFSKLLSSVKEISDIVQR
Mast/stem cell growth factor receptor Kit, sequence (P10721 whole entry): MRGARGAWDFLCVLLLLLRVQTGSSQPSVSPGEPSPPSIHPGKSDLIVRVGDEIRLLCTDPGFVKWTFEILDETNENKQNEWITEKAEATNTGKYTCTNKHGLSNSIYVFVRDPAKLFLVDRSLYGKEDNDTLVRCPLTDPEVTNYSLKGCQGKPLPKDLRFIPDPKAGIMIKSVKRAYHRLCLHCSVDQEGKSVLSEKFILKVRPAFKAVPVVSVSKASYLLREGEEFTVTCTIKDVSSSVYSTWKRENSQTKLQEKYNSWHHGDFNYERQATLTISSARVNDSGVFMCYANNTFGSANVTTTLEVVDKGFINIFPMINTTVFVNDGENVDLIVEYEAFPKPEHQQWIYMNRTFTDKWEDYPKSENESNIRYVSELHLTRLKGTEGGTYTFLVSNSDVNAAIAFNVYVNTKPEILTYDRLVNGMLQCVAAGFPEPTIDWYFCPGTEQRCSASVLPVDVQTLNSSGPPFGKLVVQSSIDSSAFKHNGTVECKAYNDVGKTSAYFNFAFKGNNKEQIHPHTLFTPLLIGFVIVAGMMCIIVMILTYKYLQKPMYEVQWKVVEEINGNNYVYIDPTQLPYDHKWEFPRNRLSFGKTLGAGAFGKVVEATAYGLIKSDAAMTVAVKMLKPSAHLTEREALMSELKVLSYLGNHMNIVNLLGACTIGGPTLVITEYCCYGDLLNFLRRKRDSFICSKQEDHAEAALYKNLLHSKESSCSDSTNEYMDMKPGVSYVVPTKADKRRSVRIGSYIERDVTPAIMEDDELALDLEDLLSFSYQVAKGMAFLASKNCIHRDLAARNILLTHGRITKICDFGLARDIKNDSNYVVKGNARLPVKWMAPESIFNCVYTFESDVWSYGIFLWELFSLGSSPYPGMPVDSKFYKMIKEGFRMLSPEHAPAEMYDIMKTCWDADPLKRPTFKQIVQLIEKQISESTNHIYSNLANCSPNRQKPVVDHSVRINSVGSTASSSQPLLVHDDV
Vascular endothelial growth factor receptor 3, sequence (P35916 whole entry): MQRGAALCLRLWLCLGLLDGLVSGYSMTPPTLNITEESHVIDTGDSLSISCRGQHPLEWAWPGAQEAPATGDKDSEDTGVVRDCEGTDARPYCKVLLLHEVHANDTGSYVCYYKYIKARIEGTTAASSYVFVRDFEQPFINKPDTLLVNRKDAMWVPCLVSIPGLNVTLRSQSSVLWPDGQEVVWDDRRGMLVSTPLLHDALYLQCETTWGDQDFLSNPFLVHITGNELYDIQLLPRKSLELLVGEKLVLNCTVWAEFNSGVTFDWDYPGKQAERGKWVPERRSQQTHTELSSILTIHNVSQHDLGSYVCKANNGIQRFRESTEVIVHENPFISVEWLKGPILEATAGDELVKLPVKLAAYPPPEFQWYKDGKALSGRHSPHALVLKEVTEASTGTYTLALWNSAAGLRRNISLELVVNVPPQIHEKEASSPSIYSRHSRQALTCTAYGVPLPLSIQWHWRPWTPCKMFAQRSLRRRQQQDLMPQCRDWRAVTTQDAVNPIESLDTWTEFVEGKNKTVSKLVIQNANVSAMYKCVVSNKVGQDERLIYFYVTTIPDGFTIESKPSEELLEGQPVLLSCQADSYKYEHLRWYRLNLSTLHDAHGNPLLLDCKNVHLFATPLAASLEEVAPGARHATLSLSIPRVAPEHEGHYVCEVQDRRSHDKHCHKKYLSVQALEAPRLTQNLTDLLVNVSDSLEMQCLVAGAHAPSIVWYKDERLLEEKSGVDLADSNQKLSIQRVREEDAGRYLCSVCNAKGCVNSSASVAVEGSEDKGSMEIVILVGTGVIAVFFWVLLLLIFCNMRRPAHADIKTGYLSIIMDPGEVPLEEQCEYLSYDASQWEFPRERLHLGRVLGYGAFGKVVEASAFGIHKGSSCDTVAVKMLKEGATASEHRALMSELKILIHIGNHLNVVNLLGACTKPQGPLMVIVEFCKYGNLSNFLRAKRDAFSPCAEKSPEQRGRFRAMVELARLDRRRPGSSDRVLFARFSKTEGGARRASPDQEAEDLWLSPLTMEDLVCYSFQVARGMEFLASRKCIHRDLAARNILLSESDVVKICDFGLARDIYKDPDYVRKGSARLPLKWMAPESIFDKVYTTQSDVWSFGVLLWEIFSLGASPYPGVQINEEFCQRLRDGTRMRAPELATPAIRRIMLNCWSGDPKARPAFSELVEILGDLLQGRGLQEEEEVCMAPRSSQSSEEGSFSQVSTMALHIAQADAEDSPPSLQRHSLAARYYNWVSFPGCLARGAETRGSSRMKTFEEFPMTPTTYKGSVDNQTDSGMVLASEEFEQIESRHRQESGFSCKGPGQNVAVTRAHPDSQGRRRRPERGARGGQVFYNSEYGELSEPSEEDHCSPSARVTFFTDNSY
RAF proto-oncogene serine/threonine-protein kinase, sequence (P04049 whole entry): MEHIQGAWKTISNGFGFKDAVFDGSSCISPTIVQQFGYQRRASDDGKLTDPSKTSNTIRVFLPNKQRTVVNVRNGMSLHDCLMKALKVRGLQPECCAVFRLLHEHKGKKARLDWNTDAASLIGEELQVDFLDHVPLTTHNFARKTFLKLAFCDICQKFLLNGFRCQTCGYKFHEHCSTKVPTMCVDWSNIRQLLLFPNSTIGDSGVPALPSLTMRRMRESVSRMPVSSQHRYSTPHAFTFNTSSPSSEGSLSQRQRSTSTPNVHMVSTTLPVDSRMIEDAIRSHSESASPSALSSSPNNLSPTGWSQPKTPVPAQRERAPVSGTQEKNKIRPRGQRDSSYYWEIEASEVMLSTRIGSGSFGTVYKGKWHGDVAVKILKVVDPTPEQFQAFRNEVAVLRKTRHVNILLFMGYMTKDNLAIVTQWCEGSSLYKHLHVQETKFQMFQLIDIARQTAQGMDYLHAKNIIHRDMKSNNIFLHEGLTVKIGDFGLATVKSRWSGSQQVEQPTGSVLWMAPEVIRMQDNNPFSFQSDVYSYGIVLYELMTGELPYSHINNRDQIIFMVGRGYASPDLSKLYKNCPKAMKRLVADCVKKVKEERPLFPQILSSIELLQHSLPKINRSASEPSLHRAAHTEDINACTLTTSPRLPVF

Row | SMILES | IC50 [1] [nM] | IC50 (K562) [nM] | IC50 [2] [nM] | IC50 [3] [nM] | other results
1 | Cc1cccc(C)c1/C=C/n1cnc2c(Nc3ccc(P(C)(C)=O)cc3)nc(N3CCCC3)nc21 | 123 | 89.1 | – | – | –
2 | CP(C)(=O)c1ccc(Nc2ncnc3c2ncn3/C=C/c2cccc3[nH]ncc23)cc1 | 850 | 355 | – | – | –
3 | Cc1cccc(C)c1/C=C/n1cnc2c(Nc3ccc(P(C)(C)=O)cc3)nc(N3CCOCC3)nc21 | 20.8 | – | 3.02 | < 0.23 | –
4 | Cc1cccc(Cl)c1/C=C/n1cnc2c(Nc3ccc(P(C)(C)=O)cc3)ncnc21 | 200 | 109 | – | – | Vd [4]: 2.74 L/kg; Cmax [5]: 4590 ng/mL; half-life [6]: 2.74 h; half-life [7]: 3.3 h; bioavailability [8]: 17%; Cmax [9]: 1680 ng/mL
5 | CP(C)(=O)c1ccc(Nc2ncnc3c2ncn3/C=C/c2cccc3[nH]ccc23)cc1 | 1540 | 954 | – | – | –
6 | CCCP(=O)(CCC)c1ccc(Nc2ncnc3c2ncn3/C=C/c2c(C)cccc2C)cc1 | 286 | 368 | – | – | Vd [4]: 2.7 L/kg; Cmax [5]: 5140 ng/mL; half-life [6]: 1.2 h; bioavailability [8]: 0%
7 | Cc1cccc(C)c1/C=C/n1cnc2c(Nc3ccc(P(C)(C)=O)cc3)nc(N(C)C)nc21 | 269 | 217 | – | – | –
8 | Cc1cccc(C)c1/C=C/n1cnc2c(Nc3ccc(P(C)(C)=O)cc3)nc(-n3ccnc3)nc21 | – | 53.7 | 1.63 | < 0.46 | –
9 | Cc1cccc(C)c1/C=C/n1cnc2c(Nc3ccc(P(C)(C)=O)cc3)nc(C(C)C)nc21 | 27.1 | 22.7 | – | – | Vd [4]: 5.4 L/kg; Cmax [5]: 1220 ng/mL; half-life [6]: 7.5 h; half-life [7]: 5.1 h; bioavailability [8]: 25%; Cmax [9]: 478 ng/mL
10 | Cc1cccc(C)c1/C=C/n1cnc2c(Nc3ccc(P(C)(C)=O)cc3)nc(C3CCCC3)nc21 | – | 224 | – | – | –
11 | COCCOc1nc(Nc2ccc(P(C)(C)=O)cc2)c2ncn(/C=C/c3c(C)cccc3C)c2n1 | 51.7 | 26.7 | 1.57 | < 0.46 | –
12 | Cc1cccc(C)c1/C=C/n1cnc2c(Nc3ccc(P(C)(C)=O)cc3)nc(C3CCN(C)CC3)nc21 | 285 | 28 | < 0.46 | < 0.46 | –
13 | CCCP(=O)(CCC)c1ccc(Nc2nc(C(C)C)nc3c2ncn3/C=C/c2ccccc2)cc1 | – | > 1000 | – | – | –
14 | CCCP(=O)(CCC)c1ccc(Nc2nc(C(C)C)nc3c2ncn3/C=C\c2ccccc2)cc1 | – | > 1000 | – | – | –
15 | Cc1cccc(C)c1/C=C/n1cnc2c(Nc3ccc(P(C)(C)=O)cc3)ncnc21 | 168 | 109 | 3.58 | 8.31 | Vd [4]: 0.98 L/kg; Cmax [5]: 4320 ng/mL; IC50 [10]: 3 nM; IC50 [11]: 221 nM; IC50 [12]: > 1000 nM; IC50 [13]: 21 nM; IC50 [14]: 414 nM; half-life [6]: 3.93 h; half-life [7]: 5 h; IC50 (Insulin receptor): > 1000 nM; IC50 [15]: > 1000 nM; IC50 [16]: > 1000 nM; IC50 [17]: 591 nM; IC50 [18]: 151 nM; IC50 (Ephrin type-B receptor 1): 6 nM; IC50 (Ephrin type-B receptor 4): 30 nM; IC50 [19]: > 1000 nM; bioavailability [8]: 20%; Cmax [9]: 1280 ng/mL
16 | COc1nc(Nc2ccc(P(C)(C)=O)cc2)c2ncn(/C=C/c3c(C)cccc3C)c2n1 | 32.7 | 52.4 | 1.8 | < 0.46 | –
17 | Cc1cccc(C)c1/C=C/n1cnc2c(Nc3ccc(P(C)(C)=O)cc3)nc(N3CCN(C)CC3)nc21 | 73.7 | 23.5 | 6.8 | < 0.23 | –
18 | CP(C)(=O)c1ccc(Nc2ncnc3c2ncn3/C=C/c2ccccc2Cl)cc1 | 2010 | 1390 | – | – | –
19 | Cc1ccc2[nH]ncc2c1/C=C/n1cnc2c(Nc3ccc(P(C)(C)=O)cc3)ncnc21 | 37.3 | 10.5 | < 0.46 | < 0.46 | Vd [4]: 1.9 L/kg; Cmax [5]: 7080 ng/mL; half-life [6]: 1.2 h; bioavailability [8]: 0%; Cmax [9]: 22 ng/mL
20 | Cc1cccc(C)c1/C=C/n1cnc2c(Nc3ccc(P(C)(C)=O)cc3)nc(OC(C)C)nc21 | 34.8 | 40.6 | 7.32 | < 0.46 | –
21 | Cc1cccc(C)c1/C=C/n1cnc2c(Nc3ccc(P(C)(C)=O)cc3)nc(CCC#N)nc21 | 38.6 | 15.8 | < 0.46 | < 0.46 | –
22 | Cc1cccc(C)c1/C=C/n1cnc2c(Nc3ccc(P(C)(C)=O)cc3)nc(Oc3cccnc3)nc21 | 35.1 | 8.5 | 0.5 | < 0.46 | –
23 | CCCP(=O)(CCC)c1ccc(Nc2nc(C(C)C)nc3c2ncn3/C=C\c2c(C)cccc2C)cc1 | – | 964 | – | – | –
24 | CCCP(=O)(CCC)c1ccc(Nc2nc(C(C)C)nc3c2ncn3/C=C/c2c(C)cccc2C)cc1 | 122 | 115 | – | – | –
